From patent US8987285B2, “Pharmaceutical compositions, dosage forms and new forms of the compound of formula (I), and methods of use thereof” (Portola Pharmaceuticals, Inc., priority 2010, dated 2015)

How the values were obtained:
[1] = cited from earlier work
[2] = Surface tension by Kibron Delta-8 tensiometer (microtensiometry); settings: for Surface Active: 24.1 ° C.

For `CC(C)(C)c1ccc(C(O)CCCN2CCC(C(O)(c3ccccc3)c3ccccc3)CC2)cc1` (stereo not drawn) [Terfenadine], the LogP [1] is given as 5.42 and the “pKa(s) B = Base” value [1] is given as “B 9.25”.

For `COc1ccc([C@@H]2Sc3ccccc3N(CCN(C)C)C(=O)[C@@H]2OC(C)=O)cc1` [Diltiazem], the LogP [1] is given as 2.89.

In the case of `O=C(O)c1cccnc1Nc1cccc(C(F)(F)F)c1` [Niflumic Acid], the LogP [1] is given as 3.88 and the “pKa(s) B = Base” value [1] is given as 2.26.

For `NS(=O)(=O)c1cc2c(cc1C(F)(F)F)NC(Cc1ccccc1)NS2(=O)=O` (stereo not drawn) [Bendroflumethiazide], the LogP [1] is given as 1.95.

In the case of `Cc1ccccc1C(OCCN(C)C)c1ccccc1` (stereo not drawn) [Orphenadrine], the LogP [1] is listed as 3.84 and the “pKa(s) B = Base” value [1] is listed as “B 9.037”.

For `CCn1cc(C(=O)O)c(=O)c2cc(F)c(N3CCNCC3)cc21` [Norfloxacin], the LogP [1] is given as −1.03, the “pKa(s) A = acid” value [1] is given as “A 6.324 B” and the “pKa(s) B = Base” value [1] is given as 8.575.

In the case of `O=C1CN(/N=C/c2ccc([N+](=O)[O-])o2)C(=O)N1` [Nitrofurantoin], the LogP [1] is listed as −0.54 and the “pKa(s) A = acid” value [1] is listed as “A 7.05”.

For `CC(C(=O)O)c1ccc2c(c1)[nH]c1ccc(Cl)cc12` (stereo not drawn) [Carprofen], the LogP [1] is given as 4.29 and the “pKa(s) A = acid” value [1] is given as “A 4.247”.

In the case of `O=C(O)c1ccccc1Nc1cccc(C(F)(F)F)c1` [Flufenamic Acid], the LogP [1] is listed as 5.56 and the “pKa(s) A = acid” value [1] is listed as “A 3.968”.

In the case of `CC(=O)Nc1ccc(O)cc1` [Paracetamol], the “pKa(s) A = acid” value [1] is given as “A 9.52”.

In the case of `NS(=O)(=O)c1cc2c(cc1Cl)NC(C(Cl)Cl)NS2(=O)=O` (stereo not drawn) [Trichlormethiazide], the LogP [1] is given as 0.97.

For `CCOC(=O)c1ccc(N)cc1` [Benzocaine], the “pKa(s) B = Base” value [1] is listed as “B 2.39”.

In the case of `CC(C)(C)NCC(O)COc1cccc2c1CC(O)C(O)C2` (stereo not drawn) [Nadolol], the “pKa(s) B = Base” value [1] is given as “B 9.696”.

For `Nc1ccc(S(=O)(=O)Nc2nccs2)cc1` [Sulfathiazole], the LogP [1] is listed as 0.07, the “pKa(s) A = acid” value [1] is listed as 7.168 and the “pKa(s) B = Base” value [1] is listed as “B 2.124 A”.

For `NC(N)=Nc1nc(CSCCC(N)=NS(N)(=O)=O)cs1` [Famotidine], the LogP [1] is given as −0.81, the “pKa(s) A = acid” value [1] is given as 11.01 and the “pKa(s) B = Base” value [1] is given as 6.77.

For `CCN(CC)Cc1cc(Nc2ccnc3cc(Cl)ccc23)ccc1O` [Amodiaquin], the LogP [1] is listed as 4.2 and the “pKa(s) A = acid” value [1] is listed as “A 11.49”.

In the case of `O=C(O)c1cc(/N=N/c2ccc(S(=O)(=O)Nc3ccccn3)cc2)ccc1O` [Sulfasalazine], the LogP [1] is given as 3.61.

For `CC(C(=O)O)c1ccc(-c2ccccc2)c(F)c1` (stereo not drawn) [Flurbiprofen], the “pKa(s) A = acid” value [1] is given as “A 4.01”.

In the case of `CNCCCN1c2ccccc2CCc2ccccc21` [Desipramine], the “pKa(s) B = Base” value [1] is given as “B 10.08”.

In the case of `CNCCC(Oc1ccc(C(F)(F)F)cc1)c1ccccc1` (stereo not drawn) [Fluoxetine], the “pKa(s) B = Base” value [1] is listed as “B 10.09”.

In the case of `O=C(O)c1ccc2ccccc2c1` [2-naphthoic acid], the LogP [1] is listed as 3.28 and the “pKa(s) A = acid” value [1] is listed as “A 3.884”.

In the case of `Nc1nc2ncc(CNc3ccc(C(=O)N[C@@H](CCC(=O)O)C(=O)O)cc3)nc2c(=O)[nH]1` [Folic Acid], the LogP [1] is listed as 0.2 and the “pKa(s) B = Base” value [1] is listed as 2.33.

In the case of `CN(C)CCCN1c2ccccc2CCc2ccccc21` [Imipramine], the “pKa(s) B = Base” value [1] is given as “B 9.54”.

For `CC1CCc2cc(F)cc3c(=O)c(C(=O)O)cn1c23` (stereo not drawn) [Flumequine], the LogP [1] is given as 1.72 and the “pKa(s) A = acid” value [1] is given as “A 6.37”.

In the case of `CN(C)CC/C=C1/c2ccccc2Sc2ccc(Cl)cc21` [Chlorprothixene], the LogP [1] is listed as 5.48 and the “pKa(s) B = Base” value [1] is listed as “B 9.52”.

For `CNCCC=C1c2ccccc2CCc2ccccc21` [Nortriptyline], the “pKa(s) B = Base” value [1] is given as “B 10.21”.

For `CN(C)CCC=C1c2ccccc2CCc2ccccc21` [Amitriptyline], the “pKa(s) B = Base” value [1] is listed as “B 9.3”.

For `O=C(CCCN1CCC(O)(c2ccc(Cl)cc2)CC1)c1ccc(F)cc1` [Haloperidol], the “pKa(s) B = Base” value [1] is given as “B 8.42”.

For `CCN(CC)CCNC(=O)c1cc(Cl)c(N)cc1OC` [Metoclopramide], the “pKa(s) B = Base” value [1] is given as “B 9.24”.

In the case of `NC12CC3CC(CC(C3)C1)C2` [Amantadine], the LogP [1] is listed as 2.41 and the “pKa(s) B = Base” value [1] is listed as “B 10.48”.

For `Cc1ccnc(NS(=O)(=O)c2ccc(N)cc2)n1` [Sulfamerazine], the LogP [1] is listed as 0.15, the “pKa(s) A = acid” value [1] is listed as 6.81 and the “pKa(s) B = Base” value [1] is listed as 2.22.

In the case of `Clc1ccc(COC(Cn2ccnc2)c2ccc(Cl)cc2Cl)c(Cl)c1` (stereo not drawn) [Miconazole], the “pKa(s) B = Base” value [1] is listed as “B 6.316”.

In the case of `Cc1cccc(Nc2ccccc2C(=O)O)c1C` [Mefenamic Acid], the “pKa(s) A = acid” value [1] is given as “A 4.221”.

In the case of `NS(=O)(=O)c1cc2c(cc1Cl)N=C(CSCc1ccccc1)NS2(=O)=O` [Benzthiazide], the LogP [1] is given as 1.73.

In the case of `Cc1ccc(Cl)c(Nc2ccccc2C(=O)O)c1Cl` [Meclofenamic Acid], the LogP [1] is listed as 5.9 and the “pKa(s) A = acid” value [1] is listed as “A 4.10”.

For `C=CCc1ccccc1OCC(O)CNC(C)C` (stereo not drawn) [Alprenolol], the “pKa(s) B = Base” value [1] is given as “B 9.477”.

For `Oc1cccc2ccccc12` [Form 1-naphthol, 1-naphthol], the “pKa(s) A = acid” value [1] is listed as “A 9.175”.

For `CNc1cc2[nH]c(=O)n(-c3ccc(NC(=O)[N-]S(=O)(=O)c4ccc(Cl)s4)cc3)c(=O)c2cc1F.[K+]` [potassium salt of formula (I)], the CMC ([2]; pH 6.0 phosphate buffer) was 0.1 mg/mL, the “Surface tension at CMC” value ([2]; pH 6.0 phosphate buffer) was 62 mN/m and the “maximum surface pressure change” value ([2]; pH6 phosphate buffer) was 11 mN/m. The CMC ([2]; pH 6.5 phosphate buffer) was over 1.7 mg/mL, the “Surface tension at CMC” value ([2]; pH 6.5 phosphate buffer) was 68 mN/m and the “Surface Active” value ([2]; pH 6.5 phosphate buffer) was “Yes”. For the same compound, the CMC ([2]; pH 7.0 phosphate buffer) was over 2.7 mg/mL, the “Surface tension at CMC” value ([2]; pH 7.0 phosphate buffer) was 65 mN/m and the “Surface Active” value ([2]; pH 7.0 phosphate buffer) was “Yes”. The CMC ([2]; pH 7.5 phosphate buffer) was over 4.0 mg/mL, the “Surface tension at CMC” value ([2]; pH 7.5 phosphate buffer) was 63 mN/m and the “Surface Active” value ([2]; pH 7.5 phosphate buffer) was “Yes”. For the same compound, the CMC ([2]; pH 8.0 phosphate buffer) was over 3.5 mg/mL, the “Surface tension at CMC” value ([2]; pH 8.0 phosphate buffer) was 63 mN/m and the “Surface Active” value ([2]; pH 8.0 phosphate buffer) was “Yes”.

In the case of `CNCCCC12CCC(c3ccccc31)c1ccccc12` [Maprotiline], the LogP [1] is listed as 4.85 and the “pKa(s) B = Base” value [1] is listed as “B 10.33”.
